Measurements taken from patent publication US12435079B2, “Bruton's tyrosine kinase inhibitors” (priority 2019, dated 2025).

Molecular target: T1, BTK (Homo sapiens, UniProt Q06187)
T1 construct: purchased Promega V2941
Assay: BTK Kinase Assay (ADP-Glo)
Assay type: biochemical
Conditions: BTK enzyme, 50 μM ATP, one hour incubation, ADP-Glo luminescence; read-out: BTK Inhibition
Protocol: The BTK assay is performed using the BTK Kinase Enzyme System (Promega; Catalog #: V2941) and ADP-Glo™ Kinase Assay kit (Promega; Catalog #: V9101). Measurement were performed in a reaction volume of 5 μL using 384-well assay plate (Corning; Catalog #: 3570). 6 ng BTK enzyme, inhibitor or 1% DMSO, 1 μg Poly(Glu4, Tyr1) peptide, and 50 μM ATP were incubated in a reaction buffer composed of 40 mM Tris-Cl (pH7.5), 20 mM MgCl2, 0.1 mg/mL BSA, 50 μM DTT and 2 mM MnCl2 for one hour. ADP was detected as described in ADP-Glo™ Kinase Assay kit using 5 μl of ADP-Glo™ Reagent and 10 μl of Kinase Detection Reagent. Luminescence was recorded using a multimode plate reader (EnVision® Multilabel Reader, Perkin Elmer). There is a linear relationship between the luminescent signal and the amount of ADP in the reaction buffer. For each compound, enzyme activity was measured at various concentrations of compound, Negative control reactions were performed in the absence of inhibitor in three replicates and six no enzyme controls were used to determine baseline luminescence levels. Dose response curve were generated to determine the concentration required for IC50 of BTK activity.
The compound numbers correspond to the compound numbers in previous Tables. Compounds having an activity designated as “A” provided an IC 50≤10 nM; Compounds having an activity designated as “B” provided an IC50 10-100 nM; Compounds having an activity designated as “C” provided an IC50 100-1000 nM; Compounds having an activity designated as “D” provided an IC50 1000-10000 nM; Compounds having an activity designated as “E” provided an IC50≥10000 nM.

T1 sequence (Q06187 whole entry): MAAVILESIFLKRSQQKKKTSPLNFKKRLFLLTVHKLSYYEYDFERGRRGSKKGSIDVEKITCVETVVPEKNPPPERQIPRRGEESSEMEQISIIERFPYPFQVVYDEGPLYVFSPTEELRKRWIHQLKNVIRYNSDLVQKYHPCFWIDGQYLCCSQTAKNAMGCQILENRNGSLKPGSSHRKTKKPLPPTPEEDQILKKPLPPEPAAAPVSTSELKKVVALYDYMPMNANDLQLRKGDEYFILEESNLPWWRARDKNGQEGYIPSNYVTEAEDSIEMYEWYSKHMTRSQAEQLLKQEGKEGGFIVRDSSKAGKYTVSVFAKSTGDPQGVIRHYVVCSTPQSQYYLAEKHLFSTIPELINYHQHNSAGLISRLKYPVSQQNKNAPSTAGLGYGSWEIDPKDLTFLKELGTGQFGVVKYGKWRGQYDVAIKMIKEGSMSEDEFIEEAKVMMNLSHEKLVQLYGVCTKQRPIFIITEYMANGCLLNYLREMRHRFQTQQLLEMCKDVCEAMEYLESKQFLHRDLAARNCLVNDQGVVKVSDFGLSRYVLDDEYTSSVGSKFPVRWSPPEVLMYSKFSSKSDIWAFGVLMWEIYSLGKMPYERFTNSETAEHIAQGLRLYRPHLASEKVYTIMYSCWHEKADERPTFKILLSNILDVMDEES

Row | SMILES | IC50
1 | Nc1nccn2c(C3CCCC(O)C3)nc(-c3ccc(Oc4ccccc4)cc3)c12 (stereo not drawn) [Compound 1, 3-[8-Amino-1-(4-phenoxy-phenyl)-imidazo[1,5-a]pyrazin-3-yl]-cyclohexanol] | ≤ 10 nM
2 | COc1cccc(Oc2ccc(-c3nc(C4CCC(O)CC4)n4ccnc(N)c34)cc2)c1F (stereo not drawn) [Compound 2, 4-{8-Amino-1-[4-(2-fluoro-3-methoxy-phenoxy)-phenyl]-imidazo[1,5-a]pyrazin-3-yl}-cyclohexanol] | ≤ 10 nM
3 | COc1cccc(Oc2ccc(-c3nc([C@@H]4CCC[C@@H](O)C4)n4ccnc(N)c34)cc2)c1F [Compound 4] | ≤ 10 nM
4 | Nc1nccn2c1c(-c1ccc(Oc3ccccc3)cc1)nc2[C@H]1CC[C@H](O)CC1 [Compound 5, 4-[8-Amino-1-(4-phenoxy-phenyl)-imidazo[1,5-a]pyrazin-3-yl]-cyclohexanol] | ≤ 10 nM
5 | Nc1nccn2c(C3CCC(O)CC3)nc(-c3ccc(Oc4cccc(Cl)c4F)cc3)c12 (stereo not drawn) [Compound 6, 4-{8-Amino-1-[4-(3-chloro-2-fluoro-phenoxy)-phenyl]-imidazo[1,5-a]pyrazin-3-yl}-cyclohexanol] | ≤ 10 nM
6 | Nc1nccn2c(C3CCC(O)CC3)nc(-c3ccc(Oc4cccc(Cl)c4)cc3)c12 (stereo not drawn) [Compound 7] | 10 to 100 nM
7 | Cc1cccc(Oc2ccc(-c3nc(C4CCC(O)CC4)n4ccnc(N)c34)cc2)c1 (stereo not drawn) [Compound 8, 4-[8-Amino-1-(4-m-tolyloxy-phenyl)-imidazo[1,5-a]pyrazin-3-yl]-cyclohexanol] | ≤ 10 nM
8 | COc1cccc(Oc2ccc(-c3nc(C4CCC(O)CC4)n4ccnc(N)c34)cc2)c1C (stereo not drawn) [Compound 9, 4-{8-Amino-1-[4-(3-methoxy-2-methyl-phenoxy)-phenyl]-imidazo[1,5-a]pyrazin-3-yl}-cyclohexanol] | 10 to 100 nM
9 | COc1ccccc1C(=O)NCc1ccc(-c2nc(C3CCC(O)CC3)n3ccnc(N)c23)cc1 (stereo not drawn) [Compound 11] | ≤ 10 nM
